# Legend:
# [1] = target: T1, Ectonucleoside triphosphate diphosphohydrolase 2 (Rattus norvegicus, UniProt O35795); assay: Inhibition of rat NTPDase2 expressed in CHO cells using ATP as substrate incubated for 10 mins by UV absorbance method; format: cell-based
# T1 sequence (O35795 whole entry): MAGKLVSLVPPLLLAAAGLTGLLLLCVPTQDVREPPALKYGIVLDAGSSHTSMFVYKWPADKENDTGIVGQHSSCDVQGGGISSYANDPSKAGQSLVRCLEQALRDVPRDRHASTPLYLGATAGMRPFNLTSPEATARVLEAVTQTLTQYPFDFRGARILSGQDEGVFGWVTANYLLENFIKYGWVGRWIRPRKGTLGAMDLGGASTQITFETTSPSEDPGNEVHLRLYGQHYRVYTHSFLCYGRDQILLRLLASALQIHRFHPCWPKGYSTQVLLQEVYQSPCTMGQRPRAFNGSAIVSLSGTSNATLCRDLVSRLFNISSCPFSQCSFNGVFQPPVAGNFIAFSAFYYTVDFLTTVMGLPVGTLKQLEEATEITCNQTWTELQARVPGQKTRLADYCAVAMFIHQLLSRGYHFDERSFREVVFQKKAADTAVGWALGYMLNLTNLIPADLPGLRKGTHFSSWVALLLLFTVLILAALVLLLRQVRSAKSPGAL
# [2] = target: T2, Ectonucleoside triphosphate diphosphohydrolase 1 (Rattus norvegicus, UniProt P97687); assay: Inhibition of rat CD39 expressed in CHO cells using ATP as substrate incubated for 10 mins by UV absorbance method; format: cell-based
# T2 sequence (P97687 whole entry): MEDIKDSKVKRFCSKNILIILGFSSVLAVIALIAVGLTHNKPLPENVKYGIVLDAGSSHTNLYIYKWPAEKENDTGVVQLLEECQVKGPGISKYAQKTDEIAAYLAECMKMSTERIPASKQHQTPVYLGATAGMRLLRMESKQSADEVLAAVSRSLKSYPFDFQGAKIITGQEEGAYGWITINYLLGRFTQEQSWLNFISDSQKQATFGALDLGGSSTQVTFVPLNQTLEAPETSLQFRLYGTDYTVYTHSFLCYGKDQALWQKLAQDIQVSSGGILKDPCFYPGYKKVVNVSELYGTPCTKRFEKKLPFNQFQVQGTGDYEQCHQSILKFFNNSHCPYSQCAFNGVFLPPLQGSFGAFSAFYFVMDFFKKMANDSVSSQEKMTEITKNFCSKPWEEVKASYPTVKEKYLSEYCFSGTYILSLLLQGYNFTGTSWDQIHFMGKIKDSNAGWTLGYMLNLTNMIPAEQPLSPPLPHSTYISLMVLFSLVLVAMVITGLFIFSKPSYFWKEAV
# [3] = Inhibition of rat NTPDase3 expressed in CHO cells using ATP as substrate incubated for 10 mins by UV absorbance method; format: cell-based
# 5'-nucleotidase [4] = target: T3, 5'-nucleotidase (Homo sapiens, UniProt P21589); assay: Inhibition of human C-terminal 6His-tagged CD73 (1 to 547 residues) expressed in HEK293F cells using 2 uM AMP as substrate by rapidfire mass spectrometry assay
# [5] = Half-life in human at 25 mg, iv infusion dosed once every 2 weeks; format: ADME, organism-based; details: in vivo
# 5'-nucleotidase [6] = target: T3, 5'-nucleotidase; assay: Inhibition of human CD73 expressed in CHO cells using AMP as substrate preincubated for 10 mins followed by substrate addition and measured every minute for 10 to 20 mins by PNP coupled enzyme assay; format: cell-based
# [7] = target: T4, Ectonucleoside triphosphate diphosphohydrolase 1 (Homo sapiens, UniProt P49961); assay: Inhibition of human CD39 using ATP as substrate preincubated for 3 mins followed by substrate addition and measured after 10 to 15 mins by Malachite green reagent based assay
# T4 sequence (P49961 whole entry): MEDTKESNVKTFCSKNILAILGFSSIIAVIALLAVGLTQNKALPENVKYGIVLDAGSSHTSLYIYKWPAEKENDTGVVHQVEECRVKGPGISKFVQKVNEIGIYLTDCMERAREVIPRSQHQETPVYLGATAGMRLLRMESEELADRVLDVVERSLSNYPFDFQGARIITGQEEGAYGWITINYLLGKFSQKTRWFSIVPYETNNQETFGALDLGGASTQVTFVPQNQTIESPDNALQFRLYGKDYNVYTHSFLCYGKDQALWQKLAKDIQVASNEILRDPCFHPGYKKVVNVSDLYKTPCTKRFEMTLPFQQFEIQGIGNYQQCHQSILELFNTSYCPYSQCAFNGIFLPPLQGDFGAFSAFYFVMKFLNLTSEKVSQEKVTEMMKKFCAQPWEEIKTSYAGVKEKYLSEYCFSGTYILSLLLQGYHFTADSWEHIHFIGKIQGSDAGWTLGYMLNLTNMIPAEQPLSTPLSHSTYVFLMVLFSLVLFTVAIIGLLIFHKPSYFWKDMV
# [8] = target: T4, Ectonucleoside triphosphate diphosphohydrolase 1; assay: Inhibition of human CD39 using ATP as substrate preincubated for 3 mins followed by substrate addition and measured after 10 to 15 mins by Dixon and Cornish-Bowden plot analysis; details: read-out: Ki(app)
# Rattus norvegicus = organism: Rattus norvegicus; assay: Inhibition of ecto-ATPase in Wistar rat cardiac synaptosomes assessed as reduction in ATP hydrolysis at 100 uM preincubated for 10 min followed by ATP addition and measured after 6 mins relative to control; format: subcellular; details: Heart, time 16.0 min
# 5'-nucleotidase [9] = target: T3, 5'-nucleotidase; assay: Inhibition of recombinant human CD73 using AMP as substrate incubated for 120 mins by CellTiter-Glo assay
# 5'-nucleotidase [10] = target: T3, 5'-nucleotidase; assay: Inhibition of recombinant human CD73 using AMP as substrate incubated for 90 mins by malachite green colorimetric assay
# 5'-nucleotidase [11] = target: T3, 5'-nucleotidase; assay: Inhibition of CD73 in human melanoma 1539 cells using AMP substrate by capillary electrophoresis assay; format: cell-based, NW1539
# 5'-nucleotidase [12] = target: T5, 5'-nucleotidase (Rattus norvegicus, UniProt P21588); assay: Inhibition of rat CD73 expressed in baculovirus infected insect cells using AMP substrate by capillary electrophoresis assay
# T5 sequence (P21588 whole entry): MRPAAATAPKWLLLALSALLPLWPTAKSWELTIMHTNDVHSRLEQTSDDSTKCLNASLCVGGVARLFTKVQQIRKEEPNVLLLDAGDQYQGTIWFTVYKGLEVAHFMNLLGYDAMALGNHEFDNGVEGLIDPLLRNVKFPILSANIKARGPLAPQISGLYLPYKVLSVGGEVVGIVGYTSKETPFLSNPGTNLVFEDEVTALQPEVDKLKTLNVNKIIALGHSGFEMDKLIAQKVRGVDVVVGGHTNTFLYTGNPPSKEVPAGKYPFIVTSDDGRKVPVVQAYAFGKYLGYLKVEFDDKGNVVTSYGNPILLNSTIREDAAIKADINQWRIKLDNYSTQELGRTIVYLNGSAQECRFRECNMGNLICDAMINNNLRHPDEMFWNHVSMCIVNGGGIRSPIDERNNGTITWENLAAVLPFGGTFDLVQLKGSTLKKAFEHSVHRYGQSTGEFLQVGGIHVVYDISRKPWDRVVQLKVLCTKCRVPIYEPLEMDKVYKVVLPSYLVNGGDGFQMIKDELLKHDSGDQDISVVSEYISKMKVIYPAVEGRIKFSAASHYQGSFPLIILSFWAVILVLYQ
# 5'-nucleotidase [13] = target: T3, 5'-nucleotidase; assay: Inhibition of human C-terminal His6-tagged CD73 expressed in HEK293F cells using [15N]5-AMP as substrate preincubated for 1 hr followed by substrate addition and measured after 8 mins by MS/MS assay
# [14] = Inhibition of human FLAG-tagged CD73 Thr376Ala mutant (1 to 552 residues) assessed as reduction in adenosine formation using AMP as substrate preincubated for 10 mins followed by substrate addition and measured after 30 mins by rapidfire mass spectrometry assay
# 5'-nucleotidase [15] = target: T3, 5'-nucleotidase; assay: Inhibition of human C-terminal 6His-tagged CD73 ( Trp27 to Lys547 residues) expressed in CHO cells using CMP as substrate incubated for 20 mins by malachite Green assay
# 5'-nucleotidase [16] = target: T3, 5'-nucleotidase; assay: Inhibition of CD73 in human serum using 13C5-15N5-AMP as substrate preincubated for 60 mins followed by substrate addition and measured after 15 mins by LC/MS based assay; format: cell-free
# T3 sequence (P21589 whole entry, the tested form may be a part): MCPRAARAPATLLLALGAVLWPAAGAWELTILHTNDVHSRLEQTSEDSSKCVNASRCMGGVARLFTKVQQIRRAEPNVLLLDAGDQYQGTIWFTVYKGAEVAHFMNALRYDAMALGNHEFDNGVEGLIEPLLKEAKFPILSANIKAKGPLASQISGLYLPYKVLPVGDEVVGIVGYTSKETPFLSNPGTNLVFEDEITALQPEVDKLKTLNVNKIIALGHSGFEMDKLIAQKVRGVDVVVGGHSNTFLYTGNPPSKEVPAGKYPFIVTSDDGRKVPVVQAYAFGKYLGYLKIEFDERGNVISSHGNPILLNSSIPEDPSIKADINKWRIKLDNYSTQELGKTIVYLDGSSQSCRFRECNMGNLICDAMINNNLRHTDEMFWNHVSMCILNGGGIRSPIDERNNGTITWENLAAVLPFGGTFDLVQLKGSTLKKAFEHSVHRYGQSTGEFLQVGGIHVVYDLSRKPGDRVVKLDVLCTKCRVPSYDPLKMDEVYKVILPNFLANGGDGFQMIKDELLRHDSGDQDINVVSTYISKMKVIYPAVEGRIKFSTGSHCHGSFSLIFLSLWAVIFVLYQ
SMILES,IC50 (5'-nucleotidase [4]) [nM],also measured
Nc1c(S(=O)(=O)O)cc(Nc2ccc(Cl)cc2)c2c1C(=O)c1ccccc1C2=O,–,Ki ([1]; cho): 18000 nM; Ki ([2]; cho): 15700 nM; Ki [3]: 16400 nM
CC[C@H]1C[C@@H]1c1cc(-c2c[nH]c(=O)[nH]c2=O)nnc1C,< 62,–
COc1nnc(-c2c[nH]c(=O)[nH]c2=O)cc1C1CC(C)(C)C1,< 62,–
N#Cc1nnc(-c2c[nH]c(=O)[nH]c2=O)cc1C1CC1,< 62,–
O=c1[nH]cc(-c2cc([C@H]3C[C@@H]3C(F)F)c(Cl)nn2)c(=O)[nH]1,< 62,–
CC(F)(F)[C@H]1C[C@@H]1c1cc(-c2c[nH]c(=O)[nH]c2=O)nnc1Cl,< 62,–
O=c1[nH]cc(-c2cc(C3CC3)c(Cl)nn2)c(=O)[nH]1,< 62,–
O=c1[nH]cc(-c2cc(C3CC(F)(F)C3)c(Cl)nn2)c(=O)[nH]1,< 62,–
CC(C)[C@H]1C[C@@H]1c1cc(-c2c[nH]c(=O)[nH]c2=O)nnc1C#N,< 62,–
COc1nnc(-c2c[nH]c(=O)[nH]c2=O)cc1C1CC1,< 62,–
CC1(C)CC(c2cc(-c3c[nH]c(=O)[nH]c3=O)nnc2Cl)C1,< 62,–
O=c1[nH]cc(-c2cc([C@H]3C[C@@H]3C(F)F)cnn2)c(=O)[nH]1,< 62,–
C[C@H](Nc1cc(Cl)nc2c1cnn2[C@@H]1O[C@H](COP(=O)(O)CP(=O)(O)O)[C@@H](O)[C@H]1O)c1ccccc1F,–,half-life [5]: 74 h
Nc1c(S(=O)(=O)O)cc(Nc2ccc(Nc3nc(Cl)nc(Nc4ccc(S(=O)(=O)O)c(S(=O)(=O)O)c4)n3)c(S(=O)(=O)O)c2)c2c1C(=O)c1ccccc1C2=O,–,Ki [1]: 24200 nM; Ki [2]: 20000 nM; Ki [3]: 1100 nM
N#Cc1nnc(-c2c[nH]c(=O)[nH]c2=O)cc1C1CCCC1,< 62,–
Cc1nnc(-c2c[nH]c(=O)[nH]c2=O)cc1[C@H]1C[C@@H]1CCF,< 62,–
C[C@@H](Nc1nc(Cl)nc2c1ncn2[C@@H]1O[C@H](CS(=O)(=O)CP(=O)(O)O)[C@@H](O)[C@H]1O)c1ccccc1,–,IC50 (5'-nucleotidase [6]): < 10 nM
O=c1[nH]cc(-c2cc(C3CCCC3)c(Cl)nn2)c(=O)[nH]1,< 62,–
CCCCSc1nc2c(N)ncnc2n1[C@@H]1O[C@H](COP(=O)(O)OP(=O)(O)O)[C@@H](O)[C@H]1O,–,IC50 [7]: 28000 nM; Ki [8]: 900 nM
Cc1cc(-c2ccc(/N=N/c3ccc4c(S(=O)(=O)O)cc(S(=O)(=O)O)c(N)c4c3O)c(C)c2)ccc1/N=N/c1ccc2c(S(=O)(=O)O)cc(S(=O)(=O)O)c(N)c2c1O,–,inhibition (Rattus norvegicus): 97.2%

SMILES,IC50 (5'-nucleotidase [4]) [nM],also measured
COc1nnc(-c2c[nH]c(=O)[nH]c2=O)cc1C1CCC(F)(F)C1 (stereo unspecified),< 62,IC50 (5'-nucleotidase [4]; hek293f): < 62 nM
Nc1ncnc2c1ncn2[C@@H]1O[C@H](COP(=O)(O)CP(=O)(O)O)[C@@H](O)[C@H]1O [PHOSPHOMETHYLPHOSPHONIC ACID ADENOSYL ESTER],–,IC50 (5'-nucleotidase [9]): 2500 nM; IC50 (5'-nucleotidase [10]): 1100 nM; Ki (5'-nucleotidase [11]): 510 nM; Ki (5'-nucleotidase [12]): 870 nM; IC50 (5'-nucleotidase [13]): 60 nM; IC50 (5'-nucleotidase [6]): 50 nM
COc1nnc(-c2c[nH]c(=O)[nH]c2=O)cc1C1CCCCC1,< 62,–
O=S1(=O)NC(Nc2cccc3[nH]ncc23)=Nc2c1cc(Cl)c(F)c2O,–,IC50 [14]: 15 nM
NC(=O)c1cc2c(c(Cl)c1O)NCCOCCCCCc1cc(cc3[nH]ccc13)NS2(=O)=O,–,IC50 [14]: 4 nM
N#Cc1nnc(-c2c[nH]c(=O)[nH]c2=O)cc1[C@H]1C[C@@H]1C(F)F,< 62,–
N#Cc1nnc(-c2c[nH]c(=O)[nH]c2=O)cc1[C@@H]1CC1(F)F,< 62,–
N#Cc1nnc(-c2c[nH]c(=O)[nH]c2=O)cc1C1CCC1,< 62,–
Cc1nnc(-c2c[nH]c(=O)[nH]c2=O)cc1[C@H]1C[C@@H]1CC(C)C,< 62,–
CCOC(=O)C(OC[C@H]1C[C@@H](n2nnc3c(NC[C@@H]4CCOC4)nc(Cl)nc32)[C@H](O)[C@@H]1O)P(=O)(O)O (stereo partly specified),–,IC50 (5'-nucleotidase [15]): < 100 nM
Cc1nnc(-c2c[nH]c(=O)[nH]c2=O)cc1[C@H]1C[C@@H]1C(C)(F)F,< 62,–
O=c1[nH]cc(-c2cc(C3CCC3)c(Cl)nn2)c(=O)[nH]1,< 62,–
O=c1[nH]cc(-c2cc([C@H]3CC3(F)F)c(Cl)nn2)c(=O)[nH]1,< 62,–
CC[C@H]1C[C@@H]1c1cc(-c2c[nH]c(=O)[nH]c2=O)nnc1C#N,< 62,–
COc1nnc(-c2c[nH]c(=O)[nH]c2=O)cc1C1CCC1,< 62,–
Cc1nnc(-c2c[nH]c(=O)[nH]c2=O)cc1[C@H]1C[C@@H]1C(F)F,< 62,EC50 (5'-nucleotidase [16]): 51 nM
COc1nnc(-c2c[nH]c(=O)[nH]c2=O)cc1C1CC(F)(F)C1,< 62,–
CC(C)[C@H]1C[C@@H]1c1cc(-c2c[nH]c(=O)[nH]c2=O)nnc1Cl,< 62,–
CCCCSc1nc2c(N)ncnc2n1[C@@H]1O[C@H](COP(=O)(O)O)[C@@H](O)[C@H]1O,–,IC50 [7]: 35000 nM

# Reference: ChEMBL document CHEMBL4680277, “Targeting Metabolism of Extracellular Nucleotides via Inhibition of Ectonucleotidases CD73 and CD39” (J Med Chem, 2020)
